Source: publication PMC8286840, “Identifying SARS-CoV-2 antiviral compounds by screening for small molecule inhibitors of Nsp3 papain-like protease” (Biochemical Journal, 2021)
Structures can show the parent of a compound that is named as a salt. Where two headings read alike, the source gives them in different places.

Experiments:
[1] = molecular target: T1, SARS-CoV-2 PLpro (nsp3 1564–1878) (Severe acute respiratory syndrome coronavirus 2, UniProt P0DTD1); experiment: biochemical; set-up: FRET-quenched peptide (Pro3) cleavage by PLpro, 10 min pre-incubation, slope over 20 min, normalised to no-compound control; conditions: low concentration screen, read-out: % of control remaining
[2] = molecular target: T1, SARS-CoV-2 PLpro (nsp3 1564–1878); experiment: biochemical; set-up: FRET-quenched peptide (Pro3) cleavage by PLpro, 10 min pre-incubation, slope over 20 min, normalised to no-compound control; conditions: high concentration screen, read-out: % of control remaining

Compound: COC[C@H](NC(=O)c1cnc(C)s1)C(=O)N[C@@H](COC)C(=O)N[C@@H](Cc1ccccc1)C(=O)[C@@]1(C)CO1 [Oprozomib (ONX 0912)]
- remaining activity at 1.25 µM ([1]; Well no.=4976): 90.1%
- remaining activity at 3.75 µM ([2]; Well no.=4976): 89.5%

Compound: COc1ccc(-c2cccc(C(=O)N(C)C)c2)cc1S(=O)(=O)Nc1cccc(NCCNC(=O)c2cccc(C)c2)c1 [Orexin 2 Receptor Agonist]
- remaining activity at 1.25 µM ([1]; Well no.=6951): 105%
- remaining activity at 3.75 µM ([2]; Well no.=6951): 103%

Compound: CCc1c(C(=O)NCCc2ccc(N3CCCCC3)cc2)[nH]c2ccc(Cl)cc12 [Org 27569]
- remaining activity at 1.25 µM ([1]; Well no.=6238): 103%
- remaining activity at 3.75 µM ([2]; Well no.=6238): 105%

Compound: C=C1C(=O)[C@]23[C@H](O)[C@H]1CC[C@H]2[C@@]12CO[C@]3(O)[C@@H](O)[C@@H]1C(C)(C)CC[C@@H]2O [Oridonin]
- remaining activity at 1.25 µM ([1]; Well no.=3255): 101%
- remaining activity at 3.75 µM ([2]; Well no.=3255): 103%

Compound: CCCCCCCCCCC[C@@H](C[C@@H]1OC(=O)[C@H]1CCCCCC)OC(=O)[C@H](CC(C)C)NC=O [Orlistat]
- remaining activity at 1.25 µM ([1]; Well no.=7366): 101%
- remaining activity at 3.75 µM ([2]; Well no.=7366): 101%

Compound: Cc1ncc([N+](=O)[O-])n1CC(O)CCl (stereo not drawn) [Ornidazole]
- remaining activity at 1.25 µM ([1]; Well no.=4939): 101%
- remaining activity at 3.75 µM ([2]; Well no.=4939): 97.6%

Compound: O=C(O)c1cc(=O)[nH]c(=O)[nH]1 [Orotic acid (6-Carboxyuracil)]
- remaining activity at 1.25 µM ([1]; Well no.=8146): 105%
- remaining activity at 3.75 µM ([2]; Well no.=8146): 98.3%

Compound: O=C(O)c1cc(=O)[nH]c(=O)[nH]1 [Orotic acid]
- remaining activity at 1.25 µM ([1]; Well no.=6207): 108%
- remaining activity at 3.75 µM ([2]; Well no.=6207): 99.7%

Compound: O=C(Nc1ccc(O)cc1)c1ccccc1O [Osalmid]
- remaining activity at 1.25 µM ([1]; Well no.=8152): 100%
- remaining activity at 3.75 µM ([2]; Well no.=8152): 100%

Compound: COc1ccc2ccc(=O)oc2c1CC=C(C)C [Osthole]
- remaining activity at 1.25 µM ([1]; Well no.=3440): 91.5%
- remaining activity at 1.25 µM ([1]; Well no.=8333): 98.6%
- remaining activity at 3.75 µM ([2]; Well no.=3440): 88.2%
- remaining activity at 3.75 µM ([2]; Well no.=8333): 94.5%

Compound: CCNC1(C(N)=O)CCN(c2ncnc3c2nc(-c2ccccc2Cl)n3-c2ccc(Cl)cc2)CC1 [Otenabant (CP-945598) HCl]
- remaining activity at 1.25 µM ([1]; Well no.=8494): 103%
- remaining activity at 3.75 µM ([2]; Well no.=8494): 108%

Compound: CCNC1(C(N)=O)CCN(c2ncnc3c2nc(-c2ccccc2Cl)n3-c2ccc(Cl)cc2)CC1 [Otenabant]
- remaining activity at 1.25 µM ([1]; Well no.=8393): 93.1%
- remaining activity at 3.75 µM ([2]; Well no.=8393): 87.6%

Compound: CCCCCCCCOc1ccccc1C(=O)Nc1ccc(C(=O)OCC[N+](C)(CC)CC)cc1 [Otilonium (bromide)]
- remaining activity at 1.25 µM ([1]; Well no.=6315): 103%
- remaining activity at 3.75 µM ([2]; Well no.=6315): 97.2%

Compound: CCCCCCCCOc1ccccc1C(=O)Nc1ccc(C(=O)OCC[N+](C)(CC)CC)cc1 [Otilonium Bromide]
- remaining activity at 1.25 µM ([1]; Well no.=4893): 92.9%
- remaining activity at 3.75 µM ([2]; Well no.=4893): 93.3%

Compound: C[C@@H]1O[C@@H](O[C@H]2C[C@@H](O)[C@]3(CO)[C@H]4[C@H](O)C[C@]5(C)[C@@H](C6=CC(=O)OC6)CC[C@]5(O)[C@@H]4CC[C@]3(O)C2)[C@H](O)[C@H](O)[C@H]1O [Ouabain]
- remaining activity at 1.25 µM ([1]; Well no.=1088): 93.1%
- remaining activity at 3.75 µM ([2]; Well no.=1088): 94.6%

Compound: Cc1onc(-c2ccccc2)c1C(=O)N[C@@H]1C(=O)N2[C@@H]1SC(C)(C)[C@@H]2C(=O)O [Oxacillin (sodium monohydrate)]
- remaining activity at 1.25 µM ([1]; Well no.=7552): 99.7%
- remaining activity at 3.75 µM ([2]; Well no.=7552): 97.5%

Compound: Cc1onc(-c2ccccc2)c1C(=O)N[C@@H]1C(=O)N2[C@@H]1SC(C)(C)[C@@H]2C(=O)O [Oxacillin]
- remaining activity at 1.25 µM ([1]; Well no.=2057): 105%
- remaining activity at 3.75 µM ([2]; Well no.=2057): 103%

Compound: O=C(O)CCc1nc(-c2ccccc2)c(-c2ccccc2)o1 [Oxaprozin]
- remaining activity at 1.25 µM ([1]; Well no.=1090): 102%
- remaining activity at 3.75 µM ([2]; Well no.=1090): 104%

Compound: O=c1[nH]c2ccccc2n1CCCN1CCN(C(c2ccccc2)c2ccccc2)CC1 [Oxatomide]
- remaining activity at 1.25 µM ([1]; Well no.=994): 103%
- remaining activity at 1.25 µM ([1]; Well no.=1855): 95.4%
- remaining activity at 3.75 µM ([2]; Well no.=994): 101%
- remaining activity at 3.75 µM ([2]; Well no.=1855): 98.9%

Compound: NC(=O)N1c2ccccc2CC(=O)c2ccccc21 [Oxcarbazepine]
- remaining activity at 1.25 µM ([1]; Well no.=2053): 103%
- remaining activity at 3.75 µM ([2]; Well no.=2053): 104%

Compound: COC(=O)Nc1nc2cc([S+]([O-])c3ccccc3)ccc2[nH]1 (stereo not drawn) [Oxfendazole]
- remaining activity at 1.25 µM ([1]; Well no.=2059): 105%
- remaining activity at 3.75 µM ([2]; Well no.=2059): 105%

Compound: CCCOc1ccc2[nH]c(NC(=O)OC)nc2c1 [Oxibendazole]
- remaining activity at 1.25 µM ([1]; Well no.=2061): 99%
- remaining activity at 3.75 µM ([2]; Well no.=2061): 98.3%

Compound: NCCc1cc(O)c(O)cc1O [Oxidopamine (hydrobromide)]
- remaining activity at 1.25 µM ([1]; Well no.=6940): 92%
- remaining activity at 3.75 µM ([2]; Well no.=6940): 92.3%

Compound: NC(=O)CN1CC(O)CC1=O (stereo not drawn) [Oxiracetam]
- remaining activity at 1.25 µM ([1]; Well no.=1040): 91.2%
- remaining activity at 3.75 µM ([2]; Well no.=1040): 97.5%

Compound: CCn1cc(C(=O)O)c(=O)c2cc3c(cc21)OCO3 [Oxolinic acid]
- remaining activity at 1.25 µM ([1]; Well no.=1134): 98.1%
- remaining activity at 3.75 µM ([2]; Well no.=1134): 98.5%

Compound: C[N+](C)(C)CC#CCN1CCCC1=O [Oxotremorine methiodide]
- remaining activity at 1.25 µM ([1]; Well no.=1138): 96.9%
- remaining activity at 3.75 µM ([2]; Well no.=1138): 97.9%

Compound: O=C1CCCN1CC#CCN1CCCC1 [Oxotremorine]
- remaining activity at 1.25 µM ([1]; Well no.=1673): 104%
- remaining activity at 3.75 µM ([2]; Well no.=1673): 102%

Compound: Cc1cc(C(C)(C)C)c(O)c(C)c1CC1=NCCN1 [Oxymetazoline (hydrochloride)]
- remaining activity at 1.25 µM ([1]; Well no.=7327): 102%
- remaining activity at 3.75 µM ([2]; Well no.=7327): 99.6%

Compound: Cc1cc(C(C)(C)C)c(O)c(C)c1CC1=NCCN1 [Oxymetazoline hydrochloride]
- remaining activity at 1.25 µM ([1]; Well no.=896): 103%
- remaining activity at 3.75 µM ([2]; Well no.=896): 101%

Compound: CN(C)[C@@H]1C(O)=C(C(N)=O)C(=O)[C@@]2(O)C(O)=C3C(=O)c4c(O)cccc4[C@@](C)(O)[C@H]3[C@H](O)[C@@H]12 [Oxytetracycline dihydrate]
- remaining activity at 1.25 µM ([1]; Well no.=4718): 102%
- remaining activity at 3.75 µM ([2]; Well no.=4718): 99.6%

Compound: CC[C@H](C)[C@@H]1NC(=O)[C@H](Cc2ccc(O)cc2)NC(=O)[C@@H](N)CSSC[C@@H](C(=O)N2CCC[C@H]2C(=O)N[C@@H](CC(C)C)C(=O)NCC(N)=O)NC(=O)[C@H](CC(N)=O)NC(=O)[C@H](CCC(N)=O)NC1=O [Oxytocin (acetate)]
- remaining activity at 1.25 µM ([1]; Well no.=8107): 107%
- remaining activity at 3.75 µM ([2]; Well no.=8107): 104%

Compound: O=C(O)/C=C/c1ccc(Cn2ccnc2)cc1 [Ozagrel HCl]
- remaining activity at 1.25 µM ([1]; Well no.=4726): 108%
- remaining activity at 3.75 µM ([2]; Well no.=4726): 101%

Compound: O=C(O)/C=C/c1ccc(Cn2ccnc2)cc1 [Ozagrel]
- remaining activity at 1.25 µM ([1]; Well no.=1886): 91.5%
- remaining activity at 3.75 µM ([2]; Well no.=1886): 93.9%

Compound: CC(C)Oc1ccc(-c2nc(-c3cccc4c3CC[C@@H]4NCCO)no2)cc1C#N [Ozanimod]
- remaining activity at 1.25 µM ([1]; Well no.=7422): 104%
- remaining activity at 3.75 µM ([2]; Well no.=7422): 106%
